{"source": "patent US5036097A", "about": "“Phenylbutyl nitrone compositions and methods for prevention of gastric ulceration” (Oklahoma Medical Research Foundation, priority 1990, dated 1991)", "key": {"[1]": {"system": "piroxicam-induced gastric ulcers", "assay": "suppression of piroxicam-induced gastric ulcers by interventions (PBN, free radical scavengers, ascorbate)", "type": "in vivo, rat (male Sprague-Dawley)", "procedure": "FIG. 2 is a graph of % control ulceration from piroxicam versus the % ulceration in the presence of free radical scavengers. The […] scavenger dimethylthiourea (DMTU, 500 mg/kg i.p.) was given 24 hours and 1 hour before piroxicam. […] The antioxidant butylated hydroxytoluene (BHT, 25 mg/kg/day i.p. in corn oil) was given for three days before and again 1 hour before piroxicam. The % control ulceration is determined by averaging the ratios of cm^2 ulceration in control stomachs from rats given piroxicam alone, and multiplying×100. +P< 0.01 compared to piroxicam alone.\nMale Sprague-Dawley rats (Charles River, Wilmington, Mass.) weighing 300-325 g were housed individually in wire bottomed cages to prevent ingestion of hair and feces. Animals were maintained without food for 48 hours and without water for 24 hours prior to each experiment. Piroxicam or aspirin and other NSAIDS were suspended in a vehicle of 1% carboxymethylcellulose, 0.1% Tween 80 and 0.15 M HCl, and administered in a volume of 1 ml on the morning of study by oral gavage using an 18 gauge curved blunt needle (Popper and Sons, New Hyde Park, N.Y.). One ml of vehicle alone was administered for control experiments. HCl was added to the vehicle to insure an acid environment in the stomach in all studies. […] Four hours after the administration of NSAID or vehicle, rats were euthanized with sodium pentobarbital (100 mg/kg IP), and the surface area of ulceration per stomach was quantitated using morphometric techniques. Stomachs were removed, the lumen was exposed by an incision along the radius of greater curvature, and the stomach was washed in phosphate buffered saline. The luminal surface was laid out on a flat surface with gross folds removed by gentle distension. The percentage of surface involved with submucosal hemorrhage was then determined by point counting, as described by Weibel, E. R. Stereological Methods: Practical Methods for Biological Morphometry. Academic Press, New York 1980. This was done by tabulation of the percentage of points over ulcerations using a point counting eyepiece graticle (16×16 points in a square format). At the 12X magnification used on the Wild dissecting microscope (Wild-Heerbrugg, Basel, Switzerland), the graticle covered a 1 cm^2 area of the surface. Four to five non-overlapping sampling sites were taken to fully cover the exposed surface. To determine the total luminal surface area, the outline of the outer boundary of the stomach was traced using a transparent acetate sheet, and the area was determined from planimetry. The surface area of ulcerated regions per stomach was then determined by multiplying the surface density of ulceration regions by the luminal surface area of the stomach.\nDifferences in total luminal surface area in cm^2, surface area of ulcerated regions per stomach and biochemical analyses between each treatment intervention and its corresponding untreated control group are compared using the Mann-Whitney U Test, Dixon, W. J., Massey, F. J., Jr. Introduction to statistical methods, 4th edition. (New York: McGraw Hill, 1983). […] In vitro studies are compared using the Student's unpaired T-test, Dixon, W. J., Massey, F. J., Jr. Introduction to statistical methods, 4th edition. (New York: McGraw Hill, 1983). Values are expressed as mean±SEM. Significance is assumed when P<0.05.\nIn each experiment, the surface area of gastric ulceration produced by piroxicam in 15 treated rats was compared to that in 15 rats of the same age and size that were fasted simultaneously but which received no intervention. Phenylbutyl nitrone (30 mg/kg) was given orally in water 1 hour before piroxicam and also added to vehicle when piroxicam was administered. When intervention were given with piroxicam, the pH of the final mixture was adjusted if necessary to equal that of piroxicam and vehicle alone."}, "[2]": {"system": "gastric biopsies (lipid peroxidation)", "assay": "lipid peroxidation in stomachs (thiobarbituric acid reactivity of gastric punch biopsies)", "type": "in vivo, rat", "conditions": "4 h after piroxicam, P<0.05 vs vehicle (0.075±0.004)", "from_the_text": "MEASUREMENT OF LIPID PEROXIDATION IN STOMACHS. Lipid peroxidation is studied in piroxicam-and vehicle-treated rat stomachs by measuring thiobarbituric acid (TBA) reactivity of gastric punch biopsies by the method of Buege and Aust Buege, J. A., Aust, S. D. Methods Enzymol 51:302-310 (1978). Four hours after piroxicam or vehicle, stomachs are opened along the radius of greater curvature, washed with ice cold normal saline, and spread along a flat surface with lumens exposed. Five punch biopsies from mucosal through serosal surfaces are taken from each stomach using a 3 mm diameter skin biopsy punch. Biopsies are taken over ulcers in piroxicam treated stomachs and randomly over gastric rugae (where ulcers occur) in vehicle control stomachs. Biopsies from each stomach are combined, homogenized on ice in 1 ml of cold 1.15% KCl, and mixed with 2 ml of TBA reagent (0.375% thiobarbituric acid and 15% trichloroacetic acid in 0.25 HCl, to which 0.01% butylated hydroxytoluene is added just prior to use). After incubation at 100° C. for 15 minutes, the mixture is cooled and centrifuged at 1,500 g for 10 min. The absorbance of the supernatant is measured at 532 nm, and results expressed as […] per stomach."}, "[3]": {"system": "mitochondrial respiration", "assay": "mitochondrial respiration (liver mitochondria)", "type": "biochemical, rat", "procedure": "Studies of Mitochondrial Respiration.\nRat liver mitochondria are prepared using the method of Lai and Clark Methods Enzymol 55:51-60 (1979). The livers are excised rapidly into ice cold isolation medium containing 0.25M sucrose, 10 mM tris(hydroxymethyl)aminomethane (Tris), 0.25% bovine serum albumin (fatty acid free), and 0.5 mM potassium EDTA, pH 7.4. The tissue is minced and rinsed three times in cold isolation medium. The minced tissue is placed in a Dounce homogenizer with 20 ml cold isolation medium, gently homogenized, and diluted with an additional 10 ml of isolation medium. The homogenate is centrifuged at 2,000 g for 3 min., and the resulting supernatant recentrifuged at 12,500 g for 8 min. The crude mitochondrial pellet is suspended in 0.12M mannitol-0.03M sucrose medium containing 3% Ficoll, gently layered onto 20 ml of 6% Ficoll (0.25M mannitol-0.06M sucrose), and centrifuged at 11,500 g for 30 min. The resulting mitochondrial pellet is resuspended in the isolation medium and recentrifuged for 10 min. at 12,500 g. The final pellet is brought to a concentration of 10 to 15 mg of mitochondrial protein per ml with isolation medium. Mitochondrial protein is determined by the Biuret reaction described by Gornall, A. G., et al. Biol Chem 177:751-766 (1949), using bovine serum albumin as a standard. Mitochondrial respiration is measured polarographically in a magnetically stirred chamber at 25° C., using a Clark microelectrode (Diamond Electro-tech, Ann Arbor, Mich.). The incubation medium contains the following (in mM): 5K+, 226 mannitol, 75 sucrose, 5 Tris-phosphate, 10 Tris-Cl, and 0.05 EDTA at pH 7.4. State 4 respiratory rates are determined using both NADH-linked (2.5 mM malate+ 2 mM glutamate) and FADH2 -lined (10 mM succinate) substrates, with 5 mM KCl at pH 7.0. State 3 respiration rates are measured after stimulation with 1.5 mM ADP. Respiratory control ratios are determined as the ratio of State 3 to State 4 respiration after incubation with 0, 50, 100 and 200 μM piroxicam."}, "prostaglandin synthesis": {"system": "prostaglandin synthesis", "conditions": "cited from earlier work"}, "[4]": {"conditions": "rat liver mitochondria, 0-200 μM piroxicam"}}, "data": [{"smiles": "CN1C(C(=O)Nc2ccccn2)=C(O)c2ccccc2S1(=O)=O", "note": "[piroxicam]", "values": [{"measurement": "ulceration (ascorbate experiment)", "setting": "[1]; ascorbate-treated stomachs (with piroxicam) vs piroxicam alone, P<0.001", "result": "0.031±0.009", "unit": "cm^2"}, {"measurement": "ulcerations/unit area", "setting": "[1]; piroxicam 23 mg/kg only, or plus PBN 30 mg/kg orally 1 hour before and with piroxicam, p<0.0052", "result": "0.229±0.145", "unit": "ulcerations/unit area"}, {"measurement": "thiobarbituric acid reactivity, A532", "setting": "[2]", "result": "0.104±0.010", "unit": "A532"}, {"measurement": "respiratory control", "setting": "[3]; FADH2-linked and NADH-linked substrates", "result": "inhibition of respiratory control"}, {"measurement": "rate of mitochondrial oxygen uptake in the absence of ADP (State 4)", "setting": "[3]; [4]", "result": "increases the rate of mitochondrial oxygen uptake"}, {"measurement": "stimulation of respiration by ADP (State 3)", "setting": "[3]; [4]", "result": "lost in the presence of piroxicam"}, {"measurement": "inhibition of prostaglandin synthesis", "setting": "prostaglandin synthesis", "result": "relative weak reversible inhibitor"}]}]}
